{"source": "patent US20250230159A1", "about": "“FUSED HETEROCYCLIC COMPOUNDS AS MODULATORS OF RAS SIGNALLING” (Shenzhen Ionova Life Science Co., Ltd., priority 2022, published 2025)", "data": [{"target": "KRAS-G12C/SOS1 interaction (Homo sapiens (Human), UniProt Q07889)", "sequence (Q07889 whole entry, stated change not applied)": "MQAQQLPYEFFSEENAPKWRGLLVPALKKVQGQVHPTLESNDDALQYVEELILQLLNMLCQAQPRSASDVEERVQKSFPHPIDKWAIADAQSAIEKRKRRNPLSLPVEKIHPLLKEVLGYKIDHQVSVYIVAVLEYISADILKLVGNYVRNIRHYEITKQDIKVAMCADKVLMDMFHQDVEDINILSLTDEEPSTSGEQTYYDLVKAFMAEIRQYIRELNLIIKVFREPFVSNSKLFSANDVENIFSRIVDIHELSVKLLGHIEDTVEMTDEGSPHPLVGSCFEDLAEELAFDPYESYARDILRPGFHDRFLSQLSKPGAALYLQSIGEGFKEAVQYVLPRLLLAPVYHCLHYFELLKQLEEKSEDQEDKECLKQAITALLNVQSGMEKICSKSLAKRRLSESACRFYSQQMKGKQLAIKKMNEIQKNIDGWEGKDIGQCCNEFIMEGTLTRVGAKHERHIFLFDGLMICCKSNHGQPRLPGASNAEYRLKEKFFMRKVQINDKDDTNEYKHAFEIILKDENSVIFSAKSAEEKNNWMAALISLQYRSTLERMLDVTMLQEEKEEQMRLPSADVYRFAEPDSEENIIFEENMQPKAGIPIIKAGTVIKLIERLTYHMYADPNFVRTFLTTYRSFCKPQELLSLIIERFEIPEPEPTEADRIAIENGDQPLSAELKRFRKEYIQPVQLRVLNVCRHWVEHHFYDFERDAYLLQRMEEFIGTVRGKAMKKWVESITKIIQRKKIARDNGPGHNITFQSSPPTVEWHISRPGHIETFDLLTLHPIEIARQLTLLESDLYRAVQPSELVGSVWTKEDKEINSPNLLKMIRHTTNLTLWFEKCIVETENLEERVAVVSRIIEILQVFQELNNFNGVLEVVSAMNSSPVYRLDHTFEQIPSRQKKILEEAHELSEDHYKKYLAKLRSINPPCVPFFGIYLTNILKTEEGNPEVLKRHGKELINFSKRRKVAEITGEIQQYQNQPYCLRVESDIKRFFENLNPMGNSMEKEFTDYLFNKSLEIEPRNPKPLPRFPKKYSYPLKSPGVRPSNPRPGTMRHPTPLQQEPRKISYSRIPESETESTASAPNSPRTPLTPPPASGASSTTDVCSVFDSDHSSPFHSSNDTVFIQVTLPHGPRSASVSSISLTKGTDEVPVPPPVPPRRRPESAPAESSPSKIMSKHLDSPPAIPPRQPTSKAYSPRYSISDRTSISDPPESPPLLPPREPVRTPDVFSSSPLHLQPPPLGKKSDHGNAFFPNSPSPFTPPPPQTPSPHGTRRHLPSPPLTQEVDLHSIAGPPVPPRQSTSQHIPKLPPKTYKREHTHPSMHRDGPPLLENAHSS", "assay": "Protein-Protein Interaction (PPI) assay, SOS1-KRAS binding assay kit (HTRF)", "conditions": "not given", "experimental": "(§1) This Example illustrates that exemplary compounds of the present invention blockade the interaction of SOS1 to KRAS protein.\n(§2) The ability of a compound of Formula (I) to block the interaction of SOS1 to KRAS was measured using a SOS1-KRAS binding assay kit (CAT #63ADK000CB16PEG, Cisbio). Utilizing HTRF (Homogeneous Time-resolved Fluorescence) technology, the assay enables simple and rapid characterization of compound and antibody blockers in a high throughput format. The interaction between Tag1-SOS1 and Tag2-KRAS-G12C is detected by using anti-Tag1-Terbium antibody (HTRF donor) and anti-Tag2-XL665 antibody (HTRF acceptor). When the donor and acceptor antibodies are brought into close proximity due to SOS1 and KRAS-G12C binding, excitation of the donor antibody triggers fluorescent resonance energy transfer (FRET) towards the acceptor antibody, which in turn emits specifically at 665 nm. This specific signal is directly proportional to the extent of KRAS-G12C/SOS1 interaction.\n(§3) The assay was carried according to the manufacturer's instructions. Compounds at an initial concentration of 10 mM in DMSO were first serially diluted on a 384-well plate using assay buffer at a ratio of 1:3 for a total of 9 concentrations with each of a volume of 20 μL. Blank buffer was included as the negative control. The final compound solution was in the buffer solution with 1% DMSO. Then, in each well of a 384-well plate, a solution of 2 μL compound solution, 4 μL tagged SOS1 and KRAS (G12C) protein stocks, respectively, and 10 μM GTP was incubated for 15 min. 10 μL mixture of […] antibody and anti-Tag1-Terbium antibody was introduced to each individual well. After 2 hours incubation at room temperature, fluorescence readout was measured with a Pelkin Elmer multiple plate reader VICTOR Nivo.\n(§4) Excitation was from over a range of 245-395 nm, and emission from the donor (emission 1) was detected at […] and emission from the acceptor (emission 2) was detected at (606.5-623.5) nm. The HTRF ratio was calculated using the formula: (emission 1 @665 nm/emission 2 @620 nm)×10000. Thus, compounds blocking KRAS-G12C/SOS1 interaction will cause a reduction in HTRF signal ratio. The IC50 values were then calculated with the Graph pad Prism software.", "units": {"IC50": "nM"}, "values": [{"smiles": "Cc1nc(N[C@H](C)c2cccc(C(F)F)c2F)c2cc(N3CCC(F)(F)CC3)c3nncn3c2n1", "note": "[Example 75]", "IC50": "> 100"}, {"smiles": "Cc1nc(N[C@H](C)c2cc(N)cc(C(F)(F)F)c2)c2cc(N3CCOCC3)c3nnc(C)n3c2n1", "note": "[Example 87]", "IC50": "> 100"}, {"smiles": "Cc1c([C@@H](C)Nc2ncnc3c2cc(N2CCOCC2)c2nncn23)cccc1C(F)(F)F", "note": "[Example 83]", "IC50": "> 100"}, {"smiles": "CC(=O)N1CC=C(c2cc3c(N[C@H](C)c4cccc(C(F)F)c4F)nc(C)nc3n3cnnc23)C1", "note": "[Example 103]", "IC50": "> 100"}, {"smiles": "C[C@@H](Nc1ncnc2c1cc(N1CC(C#N)C1)c1nncn12)c1cccc(C(F)F)c1F", "note": "[Example 81]", "IC50": "> 100"}, {"smiles": "C[C@@H](Nc1ncnc2c1cc(N1CCOCC1)c1nncn12)c1cccc(C(F)(F)F)c1F", "note": "[Example 84]", "IC50": "> 100"}, {"smiles": "Cc1nc(N[C@H](C)c2cccc(C(F)F)c2F)c2cc(C(=O)N3CC4(CCC4)C3)c3ncnn3c2n1", "note": "[Example 28]", "IC50": "> 100"}, {"smiles": "Cc1nc(N[C@H](C)c2cccc(C(F)F)c2F)c2cc(N3CC(O)C3)c3nncn3c2n1", "note": "[Example 77]", "IC50": "> 100"}, {"smiles": "CC(=O)N1CC=C(c2cc3c(N[C@H](C)c4cccc(C(F)F)c4F)nc(C)nc3n3cnnc23)CC1(C)C", "note": "[Example 102]", "IC50": "> 100"}, {"smiles": "Cc1nc(N[C@H](C)c2cccc(C(F)F)c2F)c2cc(C(=O)NC(C)(C)C)c3nnnn3c2n1", "note": "[Example 57]", "IC50": "> 100"}, {"smiles": "C[C@@H](Nc1ncnc2c1cc(NC1CCS(=O)(=O)CC1)c1nncn12)c1cccc(C(F)F)c1F", "note": "[Example 89]", "IC50": "> 100"}, {"smiles": "Cc1nc(N[C@H](C)c2cccc(C(F)F)c2F)c2cc(C(=O)N(C)C3COC3)c3ncnn3c2n1", "note": "[Example 8]", "IC50": "> 100"}, {"smiles": "Cc1nc(N[C@H](C)c2cccc(C(F)F)c2F)c2cc(C(=O)NC(C)(C)C)c3ncnn3c2n1", "note": "[Example 10]", "IC50": "> 100"}, {"smiles": "CC(=O)N1CCC(c2cc3c(N[C@H](C)c4cccc(C(F)F)c4F)nc(C)nc3n3c(C)nnc23)CC1", "note": "[Example 141]", "IC50": "> 100"}, {"smiles": "CC(=O)N1CC2(C1)CN(c1cc3c(N[C@H](C)c4cccc(C(F)F)c4F)ncnc3n3cnnc13)C2", "note": "[Example 82]", "IC50": "> 100"}, {"smiles": "C[C@@H](Nc1ncnc2c1cc(N1C3COCC1C3)c1nncn12)c1cccc(C(F)F)c1F", "note": "[Example 80]", "IC50": "> 100"}, {"smiles": "CCOC(=O)c1cc2c(N[C@H](C)c3cccc(C(F)F)c3F)nc(C)nc2n2cnnc12", "note": "[Example 53]", "IC50": "> 100"}]}, {"target": "KRAS-G12C/SOS1 interaction (Homo sapiens (Human), UniProt Q07889)", "assay": "Protein-Protein Interaction (PPI) assay, SOS1-KRAS binding assay kit (HTRF)", "conditions": "read-out: PPI Assay IC50", "experimental": "as §1, §2, §3, §4", "units": {"IC50": "nM"}, "values": [{"smiles": "Cc1nc(N[C@H](C)c2cccc(C(F)F)c2F)c2cc(C(=O)N3CCC4(CCOC4)C3)c3ncnn3c2n1", "note": "(stereo partly shown) [Example 34]", "IC50": "< 100"}, {"smiles": "Cc1nc(N[C@H](C)c2cccc(C(F)F)c2F)c2cc(C(=O)N3CCN(CCS(C)(=O)=O)CC3)c3nnnn3c2n1", "note": "[Example 59]", "IC50": "< 100"}, {"smiles": "Cc1nc(N[C@H](C)c2cccc(C(F)F)c2F)c2cc(C(=O)N3CC(O)C3)c3ncnn3c2n1", "note": "[Example 25]", "IC50": "< 100"}, {"smiles": "C[C@@H](Nc1ncnc2c1cc(C(=O)N1CCC13CNC3)c1ncnn12)c1cccc(C(F)F)c1F", "note": "[Example 45]", "IC50": "< 100"}, {"smiles": "Cc1nc(N[C@H](C)c2cccc(C(F)F)c2F)c2cc(C3CCSCC3)c3nncn3c2n1", "note": "[Example 138]", "IC50": "< 100"}, {"smiles": "C[C@@H](Nc1ncnc2c1cc(C(=O)N1CCCC13CCOC3)c1ncnn12)c1cccc(C(F)F)c1F", "note": "(stereo partly shown) [Example 44]", "IC50": "< 100"}, {"smiles": "Cc1nc(N[C@H](C)c2cccc(C(F)F)c2F)c2cc(C(=O)N3CCCC34CCCC4)c3ncnn3c2n1", "note": "[Example 32]", "IC50": "< 100"}, {"smiles": "Cc1nc(N[C@H](C)c2cccc(C(F)F)c2F)c2cc(C(=O)N3C4CCC3COC4)c3nnnn3c2n1", "note": "[Example 64]", "IC50": "< 100"}, {"smiles": "C[C@@H](Nc1ncnc2c1cc(C(=O)N1C3CCC1COC3)c1ncnn12)c1cccc(C(F)F)c1F", "note": "[Example 49]", "IC50": "< 100"}, {"smiles": "CC(=O)N1CC2(C1)CN(c1cc3c(N[C@H](C)c4cccc(C(F)F)c4F)nc(C)nc3n3cnnc13)C2", "note": "[Example 78]", "IC50": "< 100"}, {"smiles": "Cc1nc(N[C@H](C)c2cccc(C(F)F)c2F)c2cc(C3CCN(S(C)(=O)=O)CC3)c3nnnn3c2n1", "note": "[Example 143]", "IC50": "< 100"}, {"smiles": "Cc1nc(N[C@H](C)c2cccc(C(F)F)c2F)c2cc(C(=O)N3CCOCC3)c3nccn3c2n1", "note": "[Example 54, (R)-(4-((1-(3-(difluoromethyl)-2-fluorophenyl)ethyl)amino)-2-methylimidazo[1′,2′:1,6]pyrido[2,3-d]pyrimidin-6-yl)(morpholino)methanone]", "IC50": "< 100"}, {"smiles": "COCC(=O)N1CCC(c2cc3c(N[C@H](C)c4cccc(C(F)F)c4F)nc(C)nc3n3nnnc23)CC1", "note": "[Example 144]", "IC50": "< 100"}, {"smiles": "Cc1nc(N[C@H](C)c2cccc(C(F)F)c2F)c2cc([C@H]3CC[C@@H](O)CC3)c3nncn3c2n1", "note": "[Example 90-P1, Cis-4-(4-(((R)-1-(3-(difluoromethyl)-2-fluorophenyl)ethyl)amino)-2-methyl-[1,2,4]triazolo[4′,3′:1,6]pyrido[2,3-d]pyrimidin-6-yl)cyclohexan-1-ol]", "IC50": "< 100"}, {"smiles": "Cc1nc(N[C@H](C)c2cccc(C(F)F)c2F)c2cc(C(=O)N3CCOC[C@@H]3C)c3ncnn3c2n1", "note": "[Example 12]", "IC50": "< 100"}, {"smiles": "C[C@@H](Nc1ncnc2c1cc(C1(O)CCS(=O)(=O)CC1)c1nncn12)c1cccc(C(F)F)c1F", "note": "[Example 110]", "IC50": "< 100"}, {"smiles": "Cc1nc(N[C@H](C)c2cccc(C(F)F)c2F)c2cc(C(=O)N3CCCCC3)c3ncnn3c2n1", "note": "[Example 16]", "IC50": "< 100"}, {"smiles": "CC(=O)N1CC2(CCN2C(=O)c2cc3c(N[C@H](C)c4cccc(C(F)F)c4F)nc(C)nc3n3nnnc23)C1", "note": "[Example 61]", "IC50": "< 100"}, {"smiles": "CC(=O)N1CC2(CCN2C(=O)c2cc3c(N[C@H](C)c4cccc(C(F)F)c4F)nc(C)nc3n3ncnc23)C1", "note": "[Example 30]", "IC50": "< 100"}, {"smiles": "[2H]C([2H])([2H])OC1(c2cc3c(N[C@H](C)c4cccc(C(F)F)c4F)ncnc3n3cnnc23)CCN(C(C)=O)CC1", "note": "[Example 133, (R)-1-(4-(4-((1-(3-(difluoromethyl)-2-fluorophenyl)ethyl)amino)-[1,2,4]triazolo[4′,3′:1,6]pyrido[2,3-d]pyrimidin-6-yl)-4-(methoxy-d3)piperidin-1-yl)ethan-1-one]", "IC50": "< 100"}, {"smiles": "COC1(c2cc3c(N[C@H](C)c4cc(N)cc(C(F)(F)F)c4)ncnc3n3nnnc23)CCN(C(C)=O)CC1", "note": "[Example 126]", "IC50": "< 100"}, {"smiles": "Cc1nc(N[C@H](C)c2cccc(C(F)F)c2F)c2cc(C(=O)N3CCC34COC4)c3nnnn3c2n1", "note": "[Example 63]", "IC50": "< 100"}, {"smiles": "C[C@@H](Nc1ncnc2c1cc(C(=O)N1CCN(CCS(C)(=O)=O)CC1)c1ncnn12)c1cccc(C(F)F)c1F", "note": "[Example 41]", "IC50": "< 100"}, {"smiles": "CC(=O)N1CC=C(c2cc3c(N[C@H](C)c4cccc(C(F)F)c4F)nc(C)nc3n3c(C)nnc23)CC1", "note": "[Example 104]", "IC50": "< 100"}, {"smiles": "C[C@H](O)C(=O)N1CCC(c2cc3c(N[C@H](C)c4cccc(C(F)F)c4F)ncnc3n3cnnc23)CC1", "note": "[Example 72]", "IC50": "< 100"}, {"smiles": "C[C@@H](Nc1ncnc2c1cc(C(=O)N1C3CCN(C)CC1C3)c1ncnn12)c1cccc(C(F)F)c1F", "note": "(stereo partly shown) [Example 48]", "IC50": "< 100"}, {"smiles": "Cc1nc(N[C@H](C)c2cccc(C(F)F)c2F)c2cc(C(=O)N3CCCC34CCOC4)c3nncn3c2n1", "note": "(stereo partly shown) [Example 52]", "IC50": "< 100"}, {"smiles": "CC(=O)N1CCC(O)(c2cc3c(N[C@H](C)c4cccc(C(F)F)c4F)nc(C)nc3n3c(C)nnc23)CC1", "note": "[Example 111]", "IC50": "< 100"}, {"smiles": "Cc1nc(N[C@H](C)c2cccc(C(F)F)c2F)c2cc(C(=O)N3CCOCC3(C)C)c3ncnn3c2n1", "note": "[Example 14]", "IC50": "< 100"}]}]}
